This is an account of results in patent publication US8410068B2, “Compounds for the treatment or alleviation of edema, and methods for their use” (Index Pharmaceuticals AB, priority 2007, dated 2013).

The test system of the data set is tetradecanoylphorbol 13-acetate (TPA) induced ear edema. Briefly: TPA-induced ear edema model. The data set is classed as in vivo, mice. The protocol: A stock solution of TPA was prepared by dissolving TPA in DMSO, 1 mg/mL, and was stored frozen at −80° C. For study B-E, a working solution was prepared with 200 μL of the TPA stock solution added to 800 μL acetone. The working solution was used the same day as it was prepared.
Each cage was identified by a cage card marked with study number, group number, ethical approval number, sex and animal ear numbers. The animals were individually marked on the tail with transverse lines corresponding to the animals' number, using a permanent-ink felt pen. An illustration of the protocols used for the different treatments is outlined in Table 4. The compounds were tested according to the same protocols with necessary modifications.
Intraperitoneal (i.p.) injections were performed by giving 100 μL in the lower right quadrant of the abdomen. Subcutaneous injections were done with 100 μL in the neck region. Intranasal administration was performed by letting the mouse inhale droplets into the nostrils, total volume 40 μL. All administrations were done on non-anesthetized mice.
Both outer ears of a non-anesthetized mouse were washed with mild soap (Palmolive, Sweden) using a soft tooth brush, the ears were dried with tissue and cleaned with tissue soaked with acetone. After allowing the acetone to evaporate, TPA or AA was applied on both sides, 10 μL, on each side of the ear with care to cover the whole ear. The mouse was held for 20 seconds to allow the solvent to evaporate.
Intraperitoneal injections were given in the lower right quadrant of the abdomen with the animal held in a supine position. Subcutaneous (s.c.) injections were given in the neck of the animals. Intranasal administrations were given to mice held in a slightly reclining position. With an adjustable micro-pipette 40 μL of the test substance was given in droplets on the nostrils and the mouse was allowed to aspirate at free will.
The ears of non-anesthetized mice were measured at different time points for up to 96 hours after the TPA was administered, or up to 24 hours for the AA model. The first measurements were done before the edema was induced. The thickness was recorded with a spring loaded dial micrometer (Limit, Thickness Gauge, accuracy 0.01 mm, contact area Ø6 mm, Luna AB, Allingsås, Sweden) in triplicates at all time points per ear.
The average thickness for both ears on a mouse was calculated and compared to the average thickness of the ears at the starting time point. The value obtained at the start of the experiment was set as 100%. The peak values and area under the curve (AUC) values for the treatment groups were calculated and compared to the inflamed control group, treated with PBS (set as 100%), and expressed as a percentage change (Δ% AUC).
Area under the curve (AUC) with base line set as 100 was calculated using GraphPad Prism version 4.03 for Windows (GraphPad Software, San Diego Calif. USA, www.graphpad.com).
AUC reduction and P-values were calculated against the positive control (TPA or AA+PBS).

Turning to “G*G*A*ACAGTTCGTCCAT*G*G*C (phosphorothioate linkages, as printed in the source, key not given here) [IDX0150, oligonucleotide used as control; * = phosphorothioate modification]”, the “average inflammatory peak value of swelling” value (FIG. 2, 100 μg IDX0150, combined from 10 experiments, vs PBS vehicle with TPA, P<0.001) was “very high statistical significant reduction in peak values”. Moreover, the “Reduction of AUC compared to PBS” value (Study A / FIG. 1, 100 μg, one single injection (i.p. in Study A, s.c. in FIG. 1) 20 min before TPA, day 0) is −38.9%. Moreover, the “reduction of AUC” value was “no reduction of AUC” (Study B, 100 μg s.c. 4 days before induction of edema); −22% (Study C (repeat of B), 100 μg s.c. 4 days before induction of edema); −16.5% (Study D, 100 μg s.c. 2 days before induction of edema); −27.3% (Study E, 100 μg s.c. same day, approx. 20 min before induction); −31.1% (Study F, equal doses 50 μg s.c. same day as swelling induced); −42.3% (Study G, therapeutic, 100 μg s.c. 2 hours after induction of edema). Besides, the “reduction of AUC” value reads like this: (Study H, 100 μg intranasal 4 days before swelling induced) −25.7%; (Study I, 100 μg intranasal day 0, same day as edema induced) −28.4%; (Study K dose response, 0.1 μg s.c. day 0) −13.9%; (Study K dose response, 1 μg s.c. day 0) −16.3%; (Study K dose response, 10 μg s.c. day 0) −27.9%; (Study K dose response, 100 μg s.c. day 0) −45%. Moreover, the “reduction of AUC” value (Study O, 10 μg given s.c. on day 0 (Table 4: i.n.)) was −25.5%. Also, for the setting “Study J, therapeutic, 100 μg intranasal 2 hours after induction”, the AUC reduced is recorded as −28.8%.
